Test results: patent US20240358624A1, “APPLICATION TYPE BODY-CORRECTING-FILM FORMING AGENT” (SHISEIDO COMPANY, LTD., priority 2021, published 2024)
Peptide text beside a SMILES is read from it.

Experiment: Permeability test with stationary Franz diffusion cell and human skin
Format: in vitro ADME
Description: The intramembrane concentrations of various water-soluble agents in the epidermis and dermis after 24 hours were measured using the following conditions and methods with a stationary Franz diffusion cell and human skin.
• Cell type: Stationary Franz diffusion cell (manufactured by Biocom Systems, Inc.) • Receptor well volume: 3.3 mL • Target skin area: 0.55 cm^2 • Membrane type: Human skin having a thickness of 300 μm (acquired from New York Firefighter's Skin Bank, Science Care, Allosource, or BioIVT) • Number of skin donors: 1 individual • Details of donors: Gender: male or female; age: from 30 to 70 years old; site: thigh or upper torso • Receptor fluid: Phosphate buffered saline (PBS) containing 0.01% w/w NaN3 (preservative)
The concentrations of water-soluble agents were measured in the receptor chamber of the diffusion cell at different time points. At the end of the diffusion test, the skin was sequentially tape-stripped and divided into epidermal and dermal layers. Concentrates of various water-soluble agents in each of the grouped tape strips and epidermal and dermal tissues were extracted using an extraction solvent and analyzed on an Agilent G6120 HPLC system equipped with an LC-MS detector.
The obtained skin was cryopreserved in a freezer at −20° C. until the morning of the test. Before use, the skin was removed from the freezer and completely thawed at room temperature. Only visually intact areas of the skin were used during testing.
The receptor fluid was prepared at the appropriate pH and degassed by filtering the receptor fluid through a ZapCap (registered trademark) CR 0.2 μm membrane while vacuuming.
The diffusion cell was assembled according to (1) to (10) below. […]
Once the cell was assembled and the skin was hydrated for 20 minutes, a tritiated water test was performed to assess the barrier integrity of each skin piece before applying the test sample to the skin. Skin barrier integrity was evaluated according to (a) to (i) below. […]

With `NC(=O)c1cccnc1` [nicotinic acid amide, reference compound] the Skin permeability (dosage form of the second agent is a water-in-oil emulsion composition) was “skin permeability is further improved”.

In the case of `NCC(=O)NCC(=O)O` [glycylglycine] (H-Gly-Gly-OH), the Skin permeability (dosage form of the second agent is an oil-in-water emulsion composition) was “skin permeability is further improved”.

With `COc1ccc(C(=O)[O-])c(O)c1.[K+]` [potassium 4-methoxysalicylate] the “Distribution in the skin when it permeates the skin” value (from body-correcting-film forming agent, Table 1) was “tends to remain in the epidermis”.
